Data as given in patent US20230159510A1, “NOVEL PRMT5 INHIBITORS” (AMGEN INC., priority 2020, published 2023).
Read-outs that look alike come from different tables or passages of the source.

Key:
HCT116 WT cells = assay: HCT116 proliferation assay, WT cells (CellTiter-Glo, 6 days); type: cell-based; settings: Homo sapiens, HCT-116, 144 h, read-out: Prolif_HCT116-WT IC50
Procedure, shortened: (§1)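 Cells grown in RPMI 1640 + 10% FBS, plated overnight, then exposed for 6 days to 8- or 9-point 1:3 compound dilutions (top 1 or 10 µM) with DMSO control. Viability read by CellTiter-Glo luminescence.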

HCT116 MTAP null cells = assay: HCT116 proliferation assay, MTAP null cells (CellTiter-Glo, 6 days); type: cell-based; settings: 144 h, read-out: Protif_ HCT116-MTAP null IC50
Procedure, shortened: as §1

PRMT5/MEP50 = PRMT5/MEP50 (Homo sapiens, UniProt O14744); assay: MTase-Glo methyl transferase assay, Method A (Histone H4 peptide, 1 µM MTA, 24 h pre-incubation); type: biochemical; design: made in house; settings: read-out: PRMT5 MTase Glo Ki (nM, Meth. A)
Description: Method A: The PRMT5 inhibitory activity of test compounds was determined using the MTase-Glo™ assay (Promega), which monitors the product (S-adenosyl homocysteine or SAH) of methyltransferase reactions. The PRMT5 MTase-Glo assay was conducted in a 384-well white ProxiPlate (PerkinElmer) in a total volume of 12 µL. The PRMT5 enzymatic reaction (in 4 µL) contained 10 nM PRMT5/MEP50 (produced at Amgen), 5 µM S-adenosyl methionine (SAM, Promega), 1 µM Histone H4 (1-21)-Lys(Biotin) (Anaspec), 1 µM 5′-methylthioadenosine (MTA, Sigma) and two-fold serially diluted compounds in a reaction buffer of 50 mM Tris (pH 8.0), 50 mM NaCl, 0.01% Tween 20, 0.01% BSA, and 1 mM DTT. Test compounds were pre-incubated with PRMT5/MEP50, SAM, and MTA for 24 hours before addition of Histone H4 peptide to initiate the PRMT5 reaction. The reaction was allowed to proceed for 2 hours at room temperature and was then terminated by addition of 2 µL of 3X MTase-Glo™ Reagent (Promega) and 150 µM EPZ015666 (Sigma). After a 30-minute incubation at room temperature, 6 µL of MTase-Glo™ Detection Solution (Promega) was added and the plate was incubated at room temperature for an additional 30 minutes. The light signal corresponding to the amount of SAH produced by the PRMT5 reaction was subsequently measured using an Envision multimode reader (PerkinElmer). IC50 and KI values were obtained by analyzing dose-response curves using Genedata Screener (Genedata).

PRMT5/MEP50, sequence (O14744 whole entry): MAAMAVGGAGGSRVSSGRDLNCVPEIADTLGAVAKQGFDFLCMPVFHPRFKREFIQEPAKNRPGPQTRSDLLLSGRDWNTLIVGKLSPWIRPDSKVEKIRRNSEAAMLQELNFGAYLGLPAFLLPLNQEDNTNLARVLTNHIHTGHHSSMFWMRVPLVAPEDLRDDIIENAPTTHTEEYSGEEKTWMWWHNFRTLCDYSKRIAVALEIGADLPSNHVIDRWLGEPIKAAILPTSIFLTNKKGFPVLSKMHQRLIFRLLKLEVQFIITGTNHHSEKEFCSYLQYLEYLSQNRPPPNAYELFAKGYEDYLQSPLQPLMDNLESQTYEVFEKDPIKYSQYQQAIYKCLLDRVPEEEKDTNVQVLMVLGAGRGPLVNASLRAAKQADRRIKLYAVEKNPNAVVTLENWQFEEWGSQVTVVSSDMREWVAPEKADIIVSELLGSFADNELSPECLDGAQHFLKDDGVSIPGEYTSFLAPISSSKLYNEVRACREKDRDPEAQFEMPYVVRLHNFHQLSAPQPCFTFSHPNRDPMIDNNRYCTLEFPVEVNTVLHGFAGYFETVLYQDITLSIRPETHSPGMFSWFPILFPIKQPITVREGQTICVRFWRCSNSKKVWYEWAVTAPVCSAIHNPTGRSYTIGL
PRMT5/MEP50, sequence (Q9BQA1 whole entry partner): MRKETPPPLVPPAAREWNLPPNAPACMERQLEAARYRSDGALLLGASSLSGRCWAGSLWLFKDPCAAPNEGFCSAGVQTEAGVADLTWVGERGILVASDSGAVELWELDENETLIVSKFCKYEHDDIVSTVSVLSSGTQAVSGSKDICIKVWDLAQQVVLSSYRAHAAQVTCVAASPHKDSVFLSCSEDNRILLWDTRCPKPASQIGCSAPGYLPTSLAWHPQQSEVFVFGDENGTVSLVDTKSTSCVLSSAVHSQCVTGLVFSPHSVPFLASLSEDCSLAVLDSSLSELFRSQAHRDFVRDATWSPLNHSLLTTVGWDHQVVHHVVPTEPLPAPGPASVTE

SMILES | IC50 (HCT116 WT cells) [nM] | IC50 (HCT116 MTAP null cells; HCT116-MTAP null) [nM] | Ki (PRMT5/MEP50) [nM] | IC50 (HCT116 MTAP null cells) [nM]
Cc1cc2cc(C(=O)N(Cc3ccc(C4CCOCC4)cn3)[C@H](C)c3ncccn3)ccc2nc1N [Example 559, 2-amino-3-methyl-N-((1R)-1-(2-pyrimidinyl)ethyl)-N-((5-(tetrahydro-2H-pyran-4-yl)-2-pyridinyl)methyl)-6-quinolinecarboxamide] | 2190 | 147 | 0.07 | 
Cc1cc2c(CN(Cc3ccc(C(F)(F)F)cn3)C(=O)c3ccc4nc(N)c(C)cc4c3)ccnc2[nH]1 [Example 506, 2-amino-3-methyl-N-((2-methyl-1H-pyrrolo[2,3-b]pyridin-4-yl)methyl)-N-((5-(trifluoromethyl)-2-pyridinyl)methyl)-6-quinolinecarboxamide] | 1160 | 107 | 0.01 | 
Cc1cc2cc(C(=O)N(Cc3ccc(C(F)(F)F)nn3)[C@@H]3CCc4cccnc43)ccc2nc1N [Example 395, 2-amino-N-((7R)-6,7-dihydro-5H-cyclopenta[b]pyridin-7-yl)-3-methyl-N-((6-(trifluoromethyl)-3-pyridazinyl)methyl)-6-quinolinecarboxamide] | 2370 | 82 | 0.16 | 
COc1ccc(CN(C(=O)c2ccc3nc(N)c(Cl)cc3c2)[C@H](C)c2ncccn2)nn1 [Example 413, 2-amino-3-chloro-N-((6-methoxy-3-pyridazinyl)methyl)-N-((1R)-1-(2-pyrimidinyl)ethyl)-6-quinolinecarboxamide] | > 10000 | 655 | 0.65 | 
Cc1cc2cc(C(=O)N(Cc3ccc(C(F)(F)F)cn3)CC3CC3)ccc2nc1N [Example 325, 2-amino-N-(cyclopropylmethyl)-3-methyl-N-((5-(trifluoromethyl)-2-pyridinyl)methyl)-6-quinolinecarboxamide] | 6180 | 679 | 2.76 | 
COCC(COC)N(Cc1ccc(C(F)(F)F)cn1)C(=O)c1ccc2nc(N)c(C)cc2c1 [Example 511, 2-amino-N-(1,3-dimethoxy-2-propanyl)-3-methyl-N-((5-(trifluoromethyl)-2-pyridinyl)methyl)-6-quinolinecarboxamide] | 2340 | 192 | 0.14 | 
CC(=O)N1CCC(c2ccc(CN(C(=O)c3ccc4nc(N)c(C)cc4c3)[C@H](C)c3ncccn3)nc2)CC1 [Example 552, N-((5-(1-acetyl-4-piperidinyl)-2-pyridinyl)methyl)-2-amino-3-methyl-N-((1R)-1-(2-pyrimidinyl)ethyl)-6-quinolinecarboxamide] | 2550 | 220 | 0.32 | 
COC(=O)c1ccc(CN(C(=O)c2ccc3nc(N)c(C)cc3c2)[C@H](C)c2ncccc2F)nc1 [Example 403, methyl 6-((((2-amino-3-methyl-6-quinolinyl)carbonyl)((1R)-1-(3-fluoro-2-pyridinyl)ethyl)amino)methyl)-3-pyridinecarboxylate] | 8880 | 263 | 0.55 | 
C[C@H](c1ncccn1)N(Cc1ccc(OC2COC2)cn1)C(=O)c1cnc2nc(N)c(Br)cc2c1 [Example 426, 7-amino-6-bromo-N-((5-(3-oxetanyloxy)-2-pyridinyl)methyl)-N-((1R)-1-(2-pyrimidinyl)ethyl)-1,8-naphthyridine-3-carboxamide] | > 10000 | 964 | 0.47 | 
Cc1cc2cc(C(=O)N(Cc3ccc(C(F)(F)F)cn3)[C@H](C)c3ncc(F)cn3)cnc2nc1N (single isomer, unassigned) [Example 481] | 4450 | 225 | 0.18 | 
Cc1cc2cc(C(=O)N(Cc3ccc(Br)nn3)[C@H](C)c3ncn(C)n3)ccc2nc1N (single isomer, unassigned) [Example 536] | 1460 | 44 | 0.02 | 
Cc1cc2cc(C(=O)N(Cc3ccc(C#N)cn3)[C@H](C)c3ncccc3F)ccc2nc1N [Example 542, (R)-2-amino-N-((5-cyanopyridin-2-yl)methyl)-N-(1-(3-fluoropyridin-2-yl)ethyl)-3-methylquinoline-6-carboxamide] | 4180 | 110 | 0.12 | 
Cc1cc(N)nc2ccc(C(=O)N(Cc3ccc(C(F)(F)F)cn3)[C@H](C)c3ncccn3)cc12 [Example 432, 2-amino-4-methyl-N-((1R)-1-(2-pyrimidinyl)ethyl)-N-((5-(trifluoromethyl)-2-pyridinyl)methyl)-6-quinolinecarboxamide] | 110 | 24 | 0.57 | 
Cc1cc2cc(C(=O)N(Cc3ccc(C#N)cn3)[C@@H]3CCCn4ncnc43)ccc2nc1N (single isomer, unassigned) [Example 523] | 6380 | 334 | 0.35 | 
Cc1cc2cc(C(=O)N(Cc3ccc(C#N)cc3)[C@H](C)c3ncccn3)ccc2nc1N (single isomer, unassigned) [Example 475] | 4460 | 268 | 0.07 | 
Cc1cc2cc(C(=O)N(Cc3ccc(C(F)(F)F)cn3)Cc3ncccn3)ccc2nc1N [Example 338, 2-amino-3-methyl-N-(2-pyrimidinylmethyl)-N-((5-(trifluoromethyl)-2-pyridinyl)methyl)-6-quinolinecarboxamide] | > 10000 |  | 0.8 | 232
Nc1nc2ncc(C(=O)N(Cc3ccc(C(F)(F)F)cn3)[C@@H]3CCCc4nccnc43)cc2cc1Br (single isomer, unassigned) [Example 467] | 248 | 28 | 0.21 | 
Cc1cc2cc(C(=O)N(Cc3ccc(C#N)cn3)CC3CC3)c(F)cc2nc1N [Example 307, 2-amino-N-((5-cyano-2-pyridinyl)methyl)-N-(cyclopropylmethyl)-7-fluoro-3-methyl-6-quinolinecarboxamide] | 7660 | 349 | 1.88 | 
COc1ccc(CN(C(=O)c2cnc3nc(N)c(Br)cc3c2)[C@H](C)c2ncccn2)nn1 (single isomer, unassigned) [Example 478] |  | 594 | 0.31 | 
COc1ccc(CN(C(=O)c2ccc3nc(N)c(C)cc3c2)[C@H](C)c2ncccn2)nn1 (single isomer, unassigned) [Example 517, 2-amino-N-((6-methoxy-3-pyridazinyl)methyl)-3-methyl-N-((IR)-1-(2-pyrimidinyl)ethyl)-6-quinolinecarboxamide] |  | 73 | 0.07 | 
COc1cnc(CN(C(=O)c2ccc3nc(N)c(C)cc3c2)[C@H](C)c2ncccn2)cn1 (single isomer, unassigned) [Example 476] |  | 660 | 0.83 | 
Cc1cc2cc(C(=O)N(Cc3ncccc3F)[C@@H]3CCc4nc(C(F)(F)F)ccc43)ccc2nc1N (single isomer, unassigned) [Example 463] |  | 683 | 1.23 | 
Cc1cc2cc(C(=O)N(Cc3ccc(Br)c(C)n3)[C@H](C)c3ncccn3)ccc2nc1N (single isomer, unassigned) [Example 465] |  | 24 | < 0.1 | 
CC[C@H](c1ncccn1)N(Cc1ccc(C(F)(F)F)cn1)C(=O)c1ccc2nc(N)c(C)cc2c1 (single isomer, unassigned) [Example 489] |  | 27 | 0.06 | 
Cc1c(Br)c(N)nc2ncc(C(=O)N(Cc3ccc(C#N)cn3)[C@H](C)c3ncccn3)cc12 [Example 744, (R)-7-amino-6-bromo-N-((5-cyanopyridin-2-yl)methyl)-5-methyl-N-(1-(pyrimidin-2-y 1)ethy 1)-1 ,8-naphthyridine-3-carboxamide] | 4120 | 188 |  | 
Cc1cc2cc(C(=O)N(Cc3ccc(C4CC4)nn3)[C@H](C)c3ncccn3)ccc2nc1N [Example 761, (R)-2-amino-N-((6-cyclopropylpyridazin-3-yl)methyl)-3-methyl-N-(1-(pyrimidin-2-yl)ethyl)quinoline-6-carboxamide] | 1350 | 64 |  | 
Cc1cc2cc(C(=O)N(Cc3ccc4c(c3)NC(=O)CO4)Cc3ccccc3F)ccc2nc1N [Example 569, 2-amino-N-[(2-fluorophenyl)methyl]-3-methyl-N-[(3-oxo-4H-1,4-benzoxazin-6-yl)methyl] quinoline-6-carboxamide] | 7160 | 331 |  | 
CC(c1ncccc1F)N(Cc1ccc(N2CCOCC2)nn1)C(=O)c1cnc2nc(N)c(Br)cc2c1 (stereo in doubt) [Example 730, 7-amino-6-bromo-N-((1R)-1-(3-fluoro-2-pyridinyl)ethyl)-N-((6-(4-morpholinyl)-3-pyridazinyl)methyl)-1,8-naphthyridine-3-carboxamide] | 8460 | 507 |  | 
